For assay [1], the target named is T1, GST-RIPK2 fusion protein (human RIPK2, amino acids 1-310) (Homo sapiens, UniProt O43353).
T1 construct: made in house; host or cells: baculovirus infected Sf9 cells
In words: RIPK2 binding competition assay (TR-FRET, Tracer 199 displacement). The conditions noted are these: 10 nM Tracer 199, 1 nM GST-RIPK2, read-out: RIPK2 IC50. The essentials:
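IC50 derived from the TR-FRET emission ratio (665/620 nm, 337 nm excitation), normalized with no-inhibitor and no-enzyme controls. Incubation 45 min at 22 °C, pH 7.5 Tris buffer, with final 10 nM tracer, 1 nM Sf9-expressed GST-RIPK2 fragment (aa 1-310) and 0.5 nM Tb-labelled anti-GST.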

The target of assay [2] is T2, binding of His-XIAP(BIR2)-avi fusion protein to GST-RIPK2 fusion protein (RIPK2/XIAP) (Homo sapiens, UniProt O43353).
T2 construct: made in house; host or cells: baculovirus infected Sf9 cells
T2 sequence (O43353 1-310 limits assumed): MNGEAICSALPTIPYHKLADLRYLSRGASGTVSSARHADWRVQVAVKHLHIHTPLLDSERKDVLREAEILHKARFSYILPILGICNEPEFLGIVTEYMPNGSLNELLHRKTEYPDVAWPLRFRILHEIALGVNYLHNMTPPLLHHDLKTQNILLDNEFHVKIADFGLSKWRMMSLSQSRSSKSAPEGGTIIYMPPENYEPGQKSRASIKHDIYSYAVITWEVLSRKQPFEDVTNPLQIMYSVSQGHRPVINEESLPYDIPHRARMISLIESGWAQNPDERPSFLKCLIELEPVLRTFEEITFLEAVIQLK
In words: RIPK2-XIAP binding competition PPI assay (TR-FRET). To be noted: for Emax: read-out: PPI Amax bin; for IC50: read-out: PPI IC50 bin. Put shortly:
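Compounds (in DMSO, 100-fold stock) incubated 120 min at 23 °C with 1 nM GST-RIPK2 (aa 1-310) and 25 nM His-XIAP(BIR2 aa 152-231)-avi, plus anti-His-XL665 and anti-GST-Tb, in pH 7.5 Tris buffer. Read-out: 665/520 nm emission ratio. Normalized to no-inhibitor (0%) and 50 nM GSK583 (−100%); Amax binned A–D.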
For orientation: TR-FRET usually uses a lanthanide donor and a delayed reading to cut background.

Assay [3] has as its system NF-κB pathway (SEAP) in THP1-Dual cells. Kind of assay: THP-1 Dual cell SEAP assay (L18-MDP stimulated). It is filed as cell-based. To be noted: Homo sapiens, THP1-Dual, read-out: NF-κB THP1 IC50 bin. The essentials:
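IC50 values derive from non-linear regression of % inhibition, calculated against DMSO/L18-MDP-treated wells after media-only subtraction. NF-κB SEAP activity was read at OD 620-655 nm (QUANTI-Blue, 2 h, 37 °C) from supernatants of THP1-Dual cells. Cells had been compound-treated 30 min before overnight (20-24 h) stimulation with 10 ng/mL final L18-MDP.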

Setting [4] is: RIPK2/XIAP binding competition PPI assay, Amax.
Setting [5] is: RIPK2/XIAP binding competition PPI assay.

Structures are written as SMILES. Where two headings read alike, the source gives them in different places. Bounds are passed on as bounds.

T1 sequence (O43353 1-310): as the sequence (O43353 1-310 limits assumed) above

For the compound `COc1cc2ncc(-c3cccc(NS(=O)(=O)C4CC4)c3)n2cc1S(=O)(=O)C(C)(C)C` [Example 146, N-(3-(6-(tert-butylsulfonyl)-7-methoxyimidazo[1,2-a]pyridin-3-yl)phenyl)cyclopropanesulfonamide], the results for the IC50 in assay [1], in assay [2] (setting [5]) and in assay [3] were 2.5 to 20 nM, 2.5 to 20 nM and over 1000 nM, respectively. Moreover, in assay [2] (setting [4]), the Emax was over 80%.

For the compound `COc1cc2ncc(-c3cccc(NS(=O)(=O)C4CCOCC4)c3)n2cc1S(=O)(=O)C(C)(C)C` [Example 147, N-(3-(6-(tert-butylsulfonyl)-7-methoxyimidazo[1,2-a]pyridin-3-yl)phenyl)tetrahydro-2H-pyran-4-sulfonamide], the figures for the half-inhibitory concentration (IC50) in assay [1], in assay [2] (setting [5]) and in assay [3] were 2.5 to 20 nM, 2.5 to 20 nM and 250 to 1000 nM, respectively. Besides, in assay [2] (setting [4]), the Emax was over 80%.

Turning to `COc1cc2ncc(-c3cccc(NS(=O)(=O)C4CCOC4)c3)n2cc1S(=O)(=O)C(C)(C)C` (centres unmarked) [Example 148, N-(3-(6-(tert-butylsulfonyl)-7-methoxyimidazo[1,2-a]pyridin-3-yl)phenyl)tetrahydrofuran-3-sulfonamide], the IC50 in assay [1] was 2.5 to 20 nM; in assay [2] (setting [5]) it was 2.5 to 20 nM; in assay [3] it was over 1000 nM. For the same compound, the Emax in assay [2] (setting [4]) is over 80%.

For `COc1cc2ncc(-c3cccc(NS(=O)(=O)C4(C)CC4)c3)n2cc1S(=O)(=O)C(C)(C)C` [Example 149, N-(3-(6-(tert-butylsulfonyl)-7-methoxyimidazo[1,2-a]pyridin-3-yl)phenyl)-1-methylcyclopropane-1-sulfonamide], the 50% inhibitory concentration (IC50) in assay [1] is 2.5 to 20 nM; in assay [2] (setting [5]) it was 2.5 to 20 nM; in assay [3] it was over 1000 nM. Besides, the Emax in assay [2] (setting [4]) is over 80%.

Regarding `COc1cc2ncc(-c3cccc(NS(=O)(=O)C4COC4)c3)n2cc1S(=O)(=O)C(C)(C)C` [Example 150, N-(3-(6-(tert-butylsulfonyl)-7-methoxyimidazo[1,2-a]pyridin-3-yl)phenyl)oxetane-3-sulfonamide], the results for the half-inhibitory concentration (IC50) in assay [1], in assay [2] (setting [5]) and in assay [3] were 2.5 to 20 nM, 2.5 to 20 nM and over 1000 nM, respectively. In assay [2] (setting [4]), the Emax is over 80%.

In the case of `COc1cc2ncc(-c3cccc(NS(=O)(=O)CC4CC4)c3)n2cc1S(=O)(=O)C(C)(C)C` [Example 151, N-(3-(6-(tert-butylsulfonyl)-7-methoxyimidazo[1,2-a]pyridin-3-yl)phenyl)-1-cyclopropylmethanesulfonamide], the IC50 in assay [1] lay within 1 to 2.5 nM; in assay [2] (setting [5]) it was 1 to 2.5 nM; in assay [3], 250 to 1000 nM. Moreover, the Emax in assay [2] (setting [4]) is over 80%.

For the compound `COc1cc2ncc(-c3cccc(NS(=O)(=O)C4CCC4)c3)n2cc1S(=O)(=O)C(C)(C)C` [Example 152, N-(3-(6-(tert-butylsulfonyl)-7-methoxyimidazo[1,2-a]pyridin-3-yl)phenyl)cyclobutanesulfonamide], the concentration for half-maximal inhibition (IC50) in assay [1] lay in the range of 2.5 to 20 nM; in assay [2] (setting [5]), 2.5 to 20 nM; in assay [3], 250 to 1000 nM. In addition, the Emax in assay [2] (setting [4]) is over 80%.

Consider `COc1cc2ncc(-c3cccc(NS(=O)(=O)C4CCN(C(=O)OC(C)(C)C)C4)c3)n2cc1S(=O)(=O)C(C)(C)C` (centres unmarked) [Example 153, tert-butyl 3-(N-(3-(6-(tert-butylsulfonyl)-7-methoxyimidazo[1,2-a]pyridin-3-yl)phenyl)sulfamoyl)pyrrolidine-1-carboxylate], for which the IC50 was 2.5 to 20 nM in assay [1], over 20 nM in assay [2] (setting [5]) and over 1000 nM in assay [3]. For the same compound, the Emax in assay [2] (setting [4]) is over 80%.

Turning to `COc1cc2ncc(-c3cccc(NS(=O)(=O)C4CCNC4)c3)n2cc1S(=O)(=O)C(C)(C)C` (centres unmarked) [Example 154, N-(3-(6-(tert-butylsulfonyl)-7-methoxyimidazo[1,2-a]pyridin-3-yl)phenyl)pyrrolidine-3-sulfonamide], the half-inhibitory concentration (IC50) in assay [1] was 2.5 to 20 nM; in assay [2] (setting [5]), 2.5 to 20 nM; in assay [3] it was over 1000 nM. The Emax in assay [2] (setting [4]) was over 80%.

Take `COc1cc2ncc(-c3cccc(NS(=O)(=O)C4CN(C(=O)OC(C)(C)C)C4)c3)n2cc1S(=O)(=O)C(C)(C)C` [Example 155, tert-butyl 3-(N-(3-(6-(tert-butylsulfonyl)-7-methoxyimidazo[1,2-a]pyridin-3-yl)phenyl)sulfamoyl)azetidine-1-carboxylate]: the IC50 was over 20 nM in assay [1], over 20 nM in assay [2] (setting [5]) and over 1000 nM in assay [3]. In addition, the Emax in assay [2] (setting [4]) is over 80%.

For `COc1cc2ncc(-c3cccc(NS(=O)(=O)C4CNC4)c3)n2cc1S(=O)(=O)C(C)(C)C` [Example 156, N-(3-(6-(tert-butylsulfonyl)-7-methoxyimidazo[1,2-a]pyridin-3-yl)phenyl)azetidine-3-sulfonamide], the concentration for half-maximal inhibition (IC50) was over 20 nM in assay [1], over 20 nM in assay [2] (setting [5]) and over 1000 nM in assay [3]. Besides, the Emax in assay [2] (setting [4]) is over 80%.

`COc1cc2ncc(-c3cccc(NS(=O)(=O)C4CCN(C(=O)OC(C)(C)C)CC4)c3)n2cc1S(=O)(=O)C(C)(C)C` [Example 157, tert-butyl 4-(N-(3-(6-(tert-butylsulfonyl)-7-methoxyimidazo[1,2-a]pyridin-3-yl)phenyl)sulfamoyl)piperidine-1-carboxylate]: the figures for the IC50 in assay [1], in assay [2] (setting [5]) and in assay [3] were over 20 nM, over 20 nM and over 1000 nM, respectively. In addition, the Emax in assay [2] (setting [4]) lay within 55 to 80%.

Consider `COc1cc2ncc(-c3cccc(NS(=O)(=O)C4CCNCC4)c3)n2cc1S(=O)(=O)C(C)(C)C` [Example 158, N-(3-(6-(tert-butylsulfonyl)-7-methoxyimidazo[1,2-a]pyridin-3-yl)phenyl)piperidine-4-sulfonamide], for which the values for the IC50 in assay [1], in assay [2] (setting [5]) and in assay [3] were over 20 nM, over 20 nM and over 1000 nM, respectively. The Emax in assay [2] (setting [4]) is over 80%.

Take `COc1cc2ncc(-c3cc(F)c(OC)c(NS(=O)(=O)CC4CC4)c3)n2cc1S(=O)(=O)C(C)(C)C` [Example 159, N-(5-(6-(tert-butylsulfonyl)-7-methoxyimidazo[1,2-a]pyridin-3-yl)-3-fluoro-2-methoxyphenyl)-1-cyclopropylmethanesulfonamide]: the IC50 in assay [1] was under 1 nM; in assay [2] (setting [5]), under 1 nM; in assay [3] it was under 50 nM. For the same compound, in assay [2] (setting [4]), the Emax is over 80%.

Take `COc1cc2ncc(-c3cc(F)c(OC)c(NS(=O)(=O)CC4COC4)c3)n2cc1S(=O)(=O)C(C)(C)C` [Example 160, N-(5-(6-(tert-butylsulfonyl)-7-methoxyimidazo[1,2-a]pyridin-3-yl)-3-fluoro-2-methoxyphenyl)-1-(oxetan-3-yl)methanesulfonamide]: the half-maximal inhibitory concentration (IC50) is under 1 nM in assay [1], under 1 nM in assay [2] (setting [5]) and under 50 nM in assay [3]. For the same compound, the Emax in assay [2] (setting [4]) is over 80%.

Regarding `COc1cc2ncc(-c3cc(F)c(N)nc3F)n2cc1S(=O)(=O)N(C)C` [Example 161, 3-(6-amino-2,5-difluoropyridin-3-yl)-7-methoxy-N,N-dimethylimidazo[1,2-a]pyridine-6-sulfonamide], the half-inhibitory concentration (IC50) in assay [1] is over 20 nM; in assay [2] (setting [5]), over 20 nM; in assay [3], over 1000 nM. Besides, in assay [2], the Emax is over 80%.

Regarding `CCCS(=O)(=O)Nc1cc(-c2cnc3cc(OC)c(S(=O)(=O)N4CCOCC4)cn23)cc(F)c1OC` [Example 162, N-(3-fluoro-2-methoxy-5-(7-methoxy-6-(morpholinosulfonyl)imidazo[1,2-a]pyridin-3-yl)phenyl)propane-1-sulfonamide], the IC50 in assay [1] fell in the range of 1 to 2.5 nM; in assay [2] (setting [5]) it was 1 to 2.5 nM; in assay [3] it was 50 to 250 nM. The Emax in assay [2] (setting [4]) is 55 to 80%.

As to `COc1cc2ncc(-c3cc(F)c(N)nc3F)n2cc1S(=O)(=O)N1CCOCC1` [Example 163, 3,6-difluoro-5-(7-methoxy-6-(morpholinosulfonyl)imidazo[1,2-a]pyridin-3-yl)pyridin-2-amine], the concentration for half-maximal inhibition (IC50) in assay [1] was over 20 nM; in assay [2] (setting [5]), over 20 nM; in assay [3], over 1000 nM. Moreover, the Emax in assay [2] (setting [4]) is over 80%.

For `COc1cc2ncc(-c3cc(F)c(N)nc3F)n2cc1S(=O)(=O)N1CCNCC1` [Example 164, 3,6-difluoro-5-(7-methoxy-6-(piperazin-1-ylsulfonyl)imidazo[1,2-a]pyridin-3-yl)pyridin-2-amine], the results for the concentration for half-maximal inhibition (IC50) in assay [1], in assay [2] (setting [5]) and in assay [3] were over 20 nM, over 20 nM and over 1000 nM, respectively. Further, the Emax in assay [2] (setting [4]) is over 80%.

Turning to `COc1cc2ncc(-c3cc(F)c(N)nc3F)n2cc1S(=O)(=O)N1CCN(C)CC1` [Example 165, 3,6-difluoro-5-(7-methoxy-6-((4-methylpiperazin-1-yl)sulfonyl)imidazo[1,2-a]pyridin-3-yl)pyridin-2-amine], the results for the IC50 in assay [1], in assay [2] (setting [5]) and in assay [3] were over 20 nM, over 20 nM and over 1000 nM, respectively. Besides, the Emax in assay [2] (setting [4]) was over 80%.

A word on the IC50: it is the concentration needed to halve the response being measured.

The record behind these values is patent publication US20260137706A1, “METHODS OF TREATING INFLAMMATORY DISEASES” (INTERLINE THERAPEUTICS, INC., priority 2023, published 2026).
